In patent publication US8440697B2, “Treatment of heart failure” (Heart Metabolics Limited, priority 2007, dated 2013):

Assays:
symptomatic HCM patients [1] = assay: Side effects and deaths in HCM study; type: in vivo
Source text: (§1) The study was approved by the South Birmingham Research Ethics Committee and the investigation conforms with the principles outlined in the Declaration of Helsinki All study participants provided written informed consent. The study was a randomized, double blind, placebo-controlled parallel-group design of minimum 3 months duration. FIG. 3 represents a flow chart of the study. The pre-defined primary end point was peak oxygen consumption (peak VO2). Pre-defined secondary end points were symptomatic status, resting myocardial energetics (PCr/γ-ATP ratio) and diastolic function at rest and during exercise (nTTPF).
Diabetic patients were also excluded to maintain the blindness of the study as Perhexiline may lead to a reduction in plasma glucose in such patients necessitating a reduction in anti-diabetic therapy. 46 consecutive consenting patients who met these entry criteria were recruited into the study.
(§2) Following baseline studies, patients were randomized in a double-blind fashion to receive either perhexiline (n=25) or placebo (n=21) 100 mg OD. Serum perhexiline levels were obtained at 1 and 4 weeks after initiation of the drug. Dose adjustments were advised by an unblinded physician according to serum level to achieve therapeutic level and to avoid drug toxicity. Identical dosage adjustments were also made for randomly allocated placebo-treated patients by the unblinded observer to ensure that blinding of the investigators was maintained. At the end of study, patients were re-evaluated as described earlier.

symptomatic HCM patients [2] = assay: Symptomatic status assessment (NYHA class, Minnesota Living with heart failure questionnaire) in HCM study; type: in vivo, human
Source text: as §1, with “(nTTPF). 33 controls of similar age and gender distribution were recruited for comparison with baseline data of HCM patients. All controls had no history or symptoms of any cardiovascular disease with normal ECG and echocardiogram (LVEF≧55%).” for “(nTTPF).”
(§3) Patients were recruited from dedicated cardiomyopathy clinics at The Heart Hospital, University College London Hospitals, London and Queen Elizabeth Hospital, Birmingham, UK between 2006 and 2008. Inclusion criteria were 18 to 80 years old symptomatic HCM patients (predominant symptom breathlessness) in sinus rhythm with reduced peak VO2 (<75% of predicted for age and gender) and no significant LVOT obstruction at rest (gradient<30 mmHg). Exclusion criteria were presence of epicardial coronary artery disease, abnormal liver function test, concomitant use of amiodarone or selective serotonin reuptake inhibitors (due to potential drug interactions with perhexiline), peripheral neuropathy and women of childbearing potential. Diabetic patients were also excluded to maintain the blindness of the study as Perhexiline may lead to a reduction in plasma glucose in such patients necessitating a reduction in anti-diabetic therapy. 46 consecutive consenting patients who met these entry criteria were recruited into the study.
All HCM patients filled in Minnesota Living with heart failure questionnaire and were also assessed for NHYA class.
as §2
Data were analyzed using SPSS ver. 15.0 for Window and Microsoft Office Excel 2007, and expressed as Mean±Standard Deviation (SD). Comparison of continuous variables between Perhexiline and Placebo baseline data were determined by unpaired Student's t-test (2-tail) if variables were normally distributed and the Mann-Whitney U-test if the data were non-normally distributed. ANCOVA with baseline values as covariates was performed to test for the significance of differences in the perhexiline versus placebo group after treatment. For the primary end point, the sample size required to detect a change in peak Vo2 of 3 ml/kg/min versus placebo group with a power of 90% and probability of 5% is 44. 30 patients will be required to identify a 5% change in cardiac PCr/ATP ratio with a power of 90% and a p value of <0.05. 40 patients will be required to detect a change ≧25% in nTTPF with power of 0.99 with probability of 5%. Therefore, we aimed to study 50 patients including the drop-outs, 32 of them will take part in the MRS study.

symptomatic HCM patients [3] = assay: 31P cardiac magnetic resonance spectroscopy, resting myocardial energetics (PCr/γ-ATP ratio) in HCM study; type: in vivo, human
Source text: as §1, with “(nTTPF). 33 controls of similar age and gender distribution were recruited for comparison with baseline data of HCM patients. All controls had no history or symptoms of any cardiovascular disease with normal ECG and echocardiogram (LVEF≧55%).” for “(nTTPF).”
Patients were recruited from dedicated cardiomyopathy clinics at The Heart Hospital, University College London Hospitals, London and Queen Elizabeth Hospital, Birmingham, UK between 2006 and 2008. […]
In vivo myocardial energetics were measured using a MRS at 3-Tesla Phillips Achieva 3T scanner (Shivu G N, Abozguia K, Phan T T, Ahmed I, Henning A, Frenneaux M. (31)P magnetic resonance spectroscopy to measure in vivo cardiac energetics in normal myocardium and hypertrophic cardiomyopathy: Experiences at 3T. Eur J Radiol 2008). A java magnetic resonance user interface v3.0 (jMRUI) was used for analysis (see Naressi A, Couturier C, Castang I, de Beer R, Graveron-Demilly D. Java-based graphical user interface for MRUI, a software package for quantitation of in vivo/medical magnetic resonance spectroscopy signals. Comput Biol Med 2001; 31(4):269-286)). […] Data were analyzed by an investigator who was blinded to the participants' clinical status. […]
(§4) Following baseline studies, patients were randomized in a double-blind fashion to receive either perhexiline (n=25) or placebo (n=21) 100 mg OD. […] At the end of study, patients were re-evaluated as described earlier.
Data were analyzed using SPSS ver. […]

symptomatic HCM patients [4] = assay: Radionuclide ventriculography, diastolic filling (nTTPF) at rest and during exercise in HCM study; type: in vivo, human
Source text: as §1, with “(nTTPF). 33 controls of similar age and gender distribution were recruited for comparison with baseline data of HCM patients. All controls had no history or symptoms of any cardiovascular disease with normal ECG and echocardiogram (LVEF≧55%).” for “(nTTPF).”
Patients were recruited from dedicated cardiomyopathy clinics at The Heart Hospital, University College London Hospitals, London and Queen Elizabeth Hospital, Birmingham, UK between 2006 and 2008. Inclusion criteria were 18 to 80 years old symptomatic HCM patients (predominant symptom breathlessness) in sinus rhythm with reduced peak VO2 (<75% of predicted for age and gender) and no significant LVOT obstruction at rest (gradient<30 mmHg). […]
Diastolic filling were assessed by equilibrium R-wave gated blood pool scintigraphy using a standard technique at rest and during graded semi erect exercise on a cycle ergometer (Atherton J J, Moore T D, Lele S S et al. Diastolic ventricular interaction in chronic heart failure. Lancet 1997; 349 (9067):1720-1724; Lele S S, Macfarlane D, Morrison S, Thomson H, Khafagi F, Frenneaux M. Determinants of exercise capacity in patients with coronary artery disease and mild to moderate systolic dysfunction. Role of heart rate and diastolic filling abnormalities. Eur Heart J 1996; 17(2):204-212). Peak left ventricular filling rate in terms of end-diastolic count per second (EDC/s) and time to peak filling normalised for R—R interval (nTTPF) in milliseconds were measured at rest and during exercise (50% of heart rate reserve). […]
as §4
(§5) Data were analyzed using SPSS ver. 15.0 for Window and Microsoft Office Excel 2007, and expressed as Mean±Standard Deviation (SD). Comparison of continuous variables between Perhexiline and Placebo baseline data were determined by unpaired Student's t-test (2-tail) if variables were normally distributed and the Mann-Whitney U-test if the data were non-normally distributed. […]

symptomatic HCM patients [5] = assay: Cardiopulmonary exercise test (peak oxygen consumption), randomized double-blind placebo-controlled study in HCM; type: in vivo, human
Source text: as §1, with “(nTTPF). 33 controls of similar age and gender distribution were recruited for comparison with baseline data of HCM patients. All controls had no history or symptoms of any cardiovascular disease with normal ECG and echocardiogram (LVEF≧55%).” for “(nTTPF).”
as §3
This was performed using a Schiller CS-200 Ergo-Spiro exercise machine which was calibrated before every study. […]
as §4, §5

[6] = perhexiline group (n=25), during the first week of treatment

Q: With C1CCC(C(CC2CCCCN2)C2CCCCC2)CC1 (centres unmarked) [perhexiline, 2-(2,2-dicyclohexylethyl) piperidine] as the molecule, how does the “Side effects: dizziness (number of patients)” value (symptomatic HCM patients [1]; [6]) read?
A: 2

Q: And the “Side effects: transient nausea (number of patients)” value (symptomatic HCM patients [1]; [6])?
A: 3

Q: And the “Deaths during the study period” value (symptomatic HCM patients [1]; whole study, perhexiline and placebo groups)?
A: no deaths

Q: What about the “NYHA score (of breathlessness), in words” value (symptomatic HCM patients [2]; FIG. 5E legend) of the same molecule?
A: falls (improves)

Q: And the “Minnesota living with heart failure questionnaire score, in words” value (symptomatic HCM patients [2]; FIG. 5F legend)?
A: falls (=improved quality of life)

Q: And the “Minnesota Living with heart failure questionnaire score after treatment” value (symptomatic HCM patients [2]; perhexiline group, after treatment, fall in score = improvement, p<0.001 vs placebo)?
A: 28±0.75

Q: And the “Minnesota Living with heart failure questionnaire score at baseline” value (symptomatic HCM patients [2]; perhexiline group, before treatment)?
A: 36.13±0.94

Q: And the “Patients with worsening in NYHA classification” value (symptomatic HCM patients [2]; perhexiline group, placebo 20 percent)?
A: 8%

Q: And the “Patients with improvements in NYHA classification” value (symptomatic HCM patients [2]; perhexiline group, placebo 30 percent)?
A: 67%

Q: What about the “Effect on PCr/ATP ratio (energetic status of heart), in words” value (symptomatic HCM patients [3]; FIG. 5B legend, unchanged in placebo group) of the same molecule?
A: improves

Q: And the “PCr/γATP ratio after treatment” value (symptomatic HCM patients [3]; perhexiline group, resting, after treatment, p=0.003 vs placebo)?
A: 1.73±0.02

Q: And the “PCr/γATP ratio at baseline” value (symptomatic HCM patients [3]; perhexiline group, resting, before treatment, mean±SD)?
A: 1.27±0.02

Q: What about the “Effect on nTTPF response to exercise, in words” value (symptomatic HCM patients [4]; FIG. 5D legend, p=0.03 vs placebo) of the same molecule?
A: normalises the response to similar to that seen in healthy controls

Q: What about the “nTTPF at rest on therapy” value (symptomatic HCM patients [4]; perhexiline group, on therapy, at rest) of the same molecule?
A: 0.19 ± 0.003 s

Q: And the “nTTPF during exercise on therapy” value (symptomatic HCM patients [4]; perhexiline group, on therapy, exercise at 50% of heart rate reserve)?
A: 0.19 ± 0.004 s

Q: What about the “nTTPF change rest to exercise on therapy” value (symptomatic HCM patients [4]; perhexiline group, on therapy, p=0.03 between perhexiline and placebo response) of the same molecule?
A: 0.00 ± 0.003 s

Q: What about the “Effect on peak VO2 (exercise capacity), in words” value (symptomatic HCM patients [5]; FIG. 5A legend, p=0.003 vs placebo) of the same molecule?
A: increases

Q: What about the “Peak VO2 at baseline” value (symptomatic HCM patients [5]; perhexiline group (n=25), before treatment, mean±SD) of the same molecule?
A: 22.2 ± 0.2 mL/min/kg

Q: And the “Peak VO2 after treatment” value (symptomatic HCM patients [5]; perhexiline group, 100 mg OD titrated to serum level, minimum 3 months, p=0.003 vs placebo response)?
A: 24.29 ± 0.2 mL/min/kg

Q: What about the “Increase in Peak VO2 after treatment” value (symptomatic HCM patients [5]; perhexiline group, after treatment vs baseline, placebo fell by -1.23, p=0.003) of the same molecule?
A: 2.09 mL/min/kg
